How the values were obtained:
human PANX1 channels = target: T1, human PANX1 channels (Homo sapiens, UniProt Q96RD7); test: Whole cell patch clamp assessment of PANX1 blockade on HEK293 cells stably expressing human PANX1 channels; type: cell-based; conditions: n=3
T1 construct: expressed in transfected cells; host or cells: HEK293
Procedure: The assessment of PANX1 blockade was assessed on HEK293 cells stably expressing human PANX1 channels, as previously described by Xu et al (2012). Briefly, wild type cells were seeded in six-well plates and 12-16 hours later, 60-70% confluent cells were transfected with the plasmid encoding hPANX1 using calcium phosphate. After 48 hours post-transfection, geneticin (G418), 0.8 mg/ml in fresh medium, was added to the cells to select for transfected clones and the medium was changed every other day. Once confluent, cells were transferred into flasks and maintained in medium containing G418 (0.8 mg/ml) for a total of 4 weeks from the transfection date.
To validate those cells as a tool to screen potential PANX1 inhibitors a number of known PANX1 inhibitors were assessed by whole cell patch clamp and the voltage/current diagrams compared to current literature. The pipette solution was 151 mM […], 10 mM HEPES, 10 mM EGTA, 3 mM MgCl2. Cells were maintained in normal extracellular solution (NES: 140 mM NaCl, 5 mM KCl, 2 mM CaCl2, 1 mM MgCl2, 10 mM D-glucose, 10 mM HEPES, pH 7.3). Voltage ramps of 1 s duration between −80 mV and +80 mV were applied at 5 s intervals. Opening of Panx1 channel was induced by hypotonic shock, by replacing the isotonic extracellular solution (310 mOsml/l) with hypotonic extracellular solution (198 mOsml/l).

mice [1] = conditions: acute; cited from earlier work
mice [2] = conditions: administered before naloxone; cited from earlier work
mice [3] = conditions: EAE MS model in mice; cited from earlier work
[4] = system: human cortical brain tissue slices; conditions: cited from earlier work
Tg mice = conditions: AD model, acute inhibition; cited from earlier work
astrocytes = test: LPS-stimulated ATP release by astrocytes; type: cell-based, rat; conditions: 5 or 50 μM, LPS stimulation, FIG. 15A
Procedure: (§1) Cortical microglia/astrocytes mechanically dissociated from decapitated postnatal P2-P4 rat pups (CD strain) were seeded on P75 flasks (1 brain per flask) and cultured at 37° C., 5% CO2 for 10-20 days using DMEM media supplemented with 10% FBS and 1% pen/strep. On Day 10, microglia were collected by gently shaking and washing and purify by passing through 20 μm cell strainer and centrifugation.
(§2) Re-suspended microglia were counted and plated onto poly-D-lysine coated 96-well culture plate at a density of 80,000 cells/well. Dislodged the remaining astrocytes (enriched astrocytes) and plated onto poly-D-lysine coated 96-well culture plate at a density of 50,000 cells/well. Overnighted microglia and/or astrocytes were treated with the PANX-1 blockers of the invention (5 or 50 μM), vehicle or control (carbenoxolone, CBX) and subjected to lipopolysaccharide stimulation. Extracellular ATP was assessed by multilabel plate reader Envision (ultrasensitive luminescence) using CellTiter-Glo (Promega) kit.

microglial cells = test: LPS-stimulated ATP release by microglial cells; type: cell-based, rat; conditions: 5 or 50 μM, LPS stimulation, FIG. 15B
Procedure: as §1, §2

CRC cells = conditions: cited from earlier work

T1 sequence (Q96RD7 whole entry): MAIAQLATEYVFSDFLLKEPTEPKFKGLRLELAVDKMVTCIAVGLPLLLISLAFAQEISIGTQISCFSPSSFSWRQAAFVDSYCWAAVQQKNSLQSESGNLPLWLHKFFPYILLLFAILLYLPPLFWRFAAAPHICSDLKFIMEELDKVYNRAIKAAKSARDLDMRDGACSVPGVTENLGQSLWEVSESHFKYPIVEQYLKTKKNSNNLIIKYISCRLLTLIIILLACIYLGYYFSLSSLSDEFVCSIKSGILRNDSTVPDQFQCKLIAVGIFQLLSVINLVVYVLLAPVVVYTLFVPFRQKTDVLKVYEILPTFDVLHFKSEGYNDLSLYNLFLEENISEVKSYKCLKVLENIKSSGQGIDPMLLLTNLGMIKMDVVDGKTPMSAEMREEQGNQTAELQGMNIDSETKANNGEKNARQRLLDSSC

CC(=O)S[C@@H]1CC2=CC(=O)CC[C@]2(C)[C@H]2CC[C@@]3(C)[C@@H](CC[C@@]34CCC(=O)O4)[C@H]12 [Spirolactone, Spironolactone]
inhibitory effect on PANX1 (human PANX1 channels; at 3, 10, or 30 μM): inhibitory effect
blood pressure (mice [1]): acutely lowers blood pressure

CCCN(CCC)S(=O)(=O)c1ccc(C(=O)O)cc1 [Probenecid]
withdrawal behaviours (mice [2]): markedly reduced
clinical symptoms (disease score) (mice [3]): reduced clinical symptoms
ictal discharges [4]: blocked ictal discharges
excitatory synaptic defects (Tg mice): significantly reduced excitatory synaptic defects

CC1(C)[C@@H](OC(=O)CCC(=O)O)CC[C@]2(C)[C@H]3C(=O)C=C4[C@@H]5C[C@@](C)(C(=O)O)CC[C@]5(C)CC[C@@]4(C)[C@]3(C)CC[C@@H]12 [Carbenoxolone]
inhibitory effect on PANX1 (human PANX1 channels; at 50 μM): inhibitory effect

O=C(O)c1ccn2c(n1)nc1ccc(Cl)cc12 [CMPD054]
release of ATP by astrocytes (astrocytes): prevented
release of ATP by microglial cells (microglial cells): prevented

N[C@@H]1[C@H]2CN(c3nc4c(cc3F)c(=O)c(C(=O)O)cn4-c3cc(-c4nnn[nH]4)ccc3Cl)C[C@@H]12 [CMPD 053]
release of ATP by astrocytes (astrocytes): prevented
release of ATP by microglial cells (microglial cells): prevented

CC1CCCC(n2cnc3c(N4CCCC4C)ncnc32)O1 (stereo not shown) [CMPD019]
release of ATP by astrocytes (astrocytes): prevented
release of ATP by microglial cells (microglial cells): prevented

OC(c1cc(C(F)(F)F)nc2c(C(F)(F)F)cccc12)C1CCCCN1 (stereo not shown) [mefloquine]
withdrawal behaviours (mice [2]): markedly reduced
ictal discharges [4]: blocked ictal discharges
growth arrest and apoptosis of CRC cells (CRC cells; CRC cells harboring phosphorylated p65, in culture and in mice): induced growth arrest and apoptosis
NF-κB inhibition (CRC cells; colorectal cancer cells): NF-κB inhibitor

O=C(O)c1ccc2c(c1)c(C(=O)O)cn2CCCc1ccccc1 [CMPD043]
release of ATP by astrocytes (astrocytes): prevented
release of ATP by microglial cells (microglial cells): prevented

Reference: patent publication US20260146041A1, “PANNEXIN-1 MODULATORS AND METHODS OF TREATING DISORDERS IN WHICH PANNEXIN-1 IS IMPLICATED” (Pannex Therapeutics Inc., priority 2022, published 2026)
